molecular target: T1, Drak2 (Homo sapiens, UniProt O94768); assay: Drak2 activity test, ADP-Glo kinase assay (Promega); type: biochemical; conditions: inhibition of Drak2 kinase activity, 2 h room temperature, activity range classes, read-out: IC50_Drak2
T1 sequence (O94768 1-372): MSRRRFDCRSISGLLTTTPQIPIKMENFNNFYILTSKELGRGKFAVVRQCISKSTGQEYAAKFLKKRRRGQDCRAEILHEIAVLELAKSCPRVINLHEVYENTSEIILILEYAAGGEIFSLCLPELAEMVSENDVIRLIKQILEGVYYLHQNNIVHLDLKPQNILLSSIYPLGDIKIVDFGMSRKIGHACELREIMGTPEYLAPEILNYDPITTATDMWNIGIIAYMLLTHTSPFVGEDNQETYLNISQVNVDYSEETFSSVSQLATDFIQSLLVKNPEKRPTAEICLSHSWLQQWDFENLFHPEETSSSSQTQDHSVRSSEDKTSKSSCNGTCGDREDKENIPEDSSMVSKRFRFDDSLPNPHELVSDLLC

IC50 [nM] | Compound
11 to 100 | COc1cc(-c2cncc(-c3cc(NC(=O)CC4CCCC4)cs3)n2)ccc1C(=O)N1CCC(OC)CC1 [Example B54, 2-cyclopentyl-N-(5-(6-(3-methoxy-4-(4-methoxypiperidine-1-carbonyl)phenyl)pyrazin-2-yl)thiophen-3-yl)acetamide]
11 to 100 | CCCCC(=O)Nc1csc(-c2cncc(-c3ccc(C(=O)N(C)C4CC5(C4)CN(C)C5)c(OC)c3)n2)c1 [Example 199, 2-Methoxy-N-methyl-N-(2-methyl-2-azaspiro[3.3]heptane-6-yl)-4-(6-(4-pentamidothiophen-2-yl)pyrazin-2-yl) benzamide]
1000 to 10000 | CCCCC(=O)Nc1cc(-c2cncc(-c3ccc(S(C)(=O)=O)c(OC)c3)n2)sc1C [Example A45, N-(5-(6-(3-methoxy-4-(methylsulfonyl)phenyl)pyrazin-2-yl)-2-methylthiophen-3-yl)pentanamide]
11 to 100 | COc1cc(-c2cncc(-c3cc(NC(=O)CC4CCC4)cs3)n2)ccc1OCC1CCN(C)CC1 [Example 184, 2-Cyclobutyl-N-(5-(6-(3-methoxy-4-((1-methylpiperidin-4-yl)methoxy)phenyl)pyrazin-2-yl)thiophen-3-yl) acetamide]
101 to 1000 | CCCCC(=O)Nc1csc(-c2cncc(-c3ccc(C(=O)OC)s3)n2)c1 [Example 222, methyl 5-(6-(4-pentamidothiophen-2-yl)pyrazin-2-yl) thiophen-2-carboxylate]
101 to 1000 | COc1cc(-c2cncc(-c3cc(NC(=O)CC4CCC4)cs3)n2)ccc1OCCc1ccccn1 [Example 172, 2-cyclobutyl-N-{5-[6-(3-methoxy-4-{[2-(pyridin-2-yl)ethyl]oxy}phenyl)pyrazin-2-yl]thiophen-3-yl} acetamide]
11 to 100 | COc1cc(-c2cncc(-c3cc(NC(=O)CC4CCC4)cs3)n2)ccc1S(C)(=O)=O [Example A44, 2-cyclobutyl-N-(5-(6-(3-methoxy-4-(methylsulfonyl)phenyl)pyrazin-2-yl)thiophen-3-yl)acetamide]
1000 to 10000 | CCCCCCC(=O)Nc1csc(-c2cncc(-c3ccc(C(=O)Nc4nnn[nH]4)c(OC)c3)n2)c1 [Example B17, 2-methoxy-4-(6-(4-heptanamidothiophen-2-yl)pyrazin-2-yl)-N-(1H-tetrazol-5-yl)benzamide]
11 to 100 | COc1ccc(-c2cncc(-c3cc(NC(=O)CC4CCC4)cs3)n2)cc1OC [Example A32, 2-cyclobutyl-N-(5-(6-(3,4-dimethoxyphenyl)pyrazin-2-yl)thiophen-3-yl)acetamide]
101 to 1000 | COc1cc(-c2cncc(-c3nc(NC(=O)CC4CCC4)cs3)n2)ccc1C(=O)N(C)C1CCN(C)CC1 [Example 223, 4-(6-{4-[(2-cyclobutylacetyl)amino]-1,3-thiazole-2-yl}pyrazin-2-yl)-2-methoxy-N-methyl-N-(1-methylhexahydropyridin-4-yl) benzamide]
11 to 100 | CCCCC(=O)Nc1csc(-c2cncc(-c3ccc(C(=O)Nc4nnnn4C)c(OC)c3)n2)c1 [Example B15, 2-methoxy-4-(6-(4-pentanamidothiophen-2-yl)pyrazin-2-yl)-N-(1-methyl-1H-tetrazol-5-yl)-benzamide]
11 to 100 | COc1cc(-c2cncc(-c3cc(NC(=O)CC4CCCC4)cs3)n2)ccc1C(=O)N1CCN(C2CCN(C)CC2)CC1 [Example B52, 2-cyclopentyl-N-(5-(6-(3-methoxy-4-(4-(1-methylpiperidin-4-yl)piperazine-1-carbonyl)phenyl)pyrazin-2-yl)thiophen-3-yl)acetamide]
11 to 100 | CCCCC(=O)Nc1csc(-c2cncc(-c3ccc(C(=O)N(C4CC4)C4CCN(C)CC4)c(OC)c3)n2)c1 [Example B76, N-cyclopropyl-2-methoxy-N-(1-methylpiperidin-4-yl)-4-(6-(4-pentanamidothiophen-2-yl)pyrazin-2-yl)benzamide]
< 10 | COc1cc(-c2cncc(-c3cc(NC(=O)CC4CC(F)C4)cs3)n2)ccc1C(=O)N(C)C1CCN(C)CC1 (stereo not drawn) [Example B90, 4-(6-(4-(2-(3-fluorocyclobutyl)acetamido)thiophen-2-yl)pyrazin-2-yl)-2-methoxy-N-methyl-N-(1-methylpiperidin-4-yl)benzamide]
11 to 100 | COc1cc(-c2cncc(-c3cc(NC(=O)CC4CCC4)cs3)n2)ccc1S(=O)(=O)N1CCOCC1 [Example B105, 2-cyclobutyl-N-(5-(6-(3-methoxy-4-(morpholinosulfonyl)phenyl)pyrazin-2-yl)thiophen-3-yl)acetamide]
11 to 100 | CCCCC(=O)Nc1csc(-c2cncc(-c3cncs3)n2)c1 [Example 217, N-{5-[6-(1,3-thiazole-5-yl)pyrazin-2-yl]thiophen-3-yl} pentanamide]
11 to 100 | COc1cc(-c2cncc(-c3cc(NC(=O)CC4CC4)cs3)n2)ccc1C(=O)Nc1nnco1 [Example B46, 4-(6-(4-(2-cyclopropylacetamido)thiophen-2-yl)pyrazin-2-yl)-2-methoxy-N-(1,3,4-oxadiazol-2-yl)benzamide]

IC50 [nM] | Compound
11 to 100 | COc1cc(-c2cncc(-c3cc(NC(=O)CC4CCCC4)cs3)n2)ccc1C(=O)N(C)C1CCN(C)CC1 [Example B61, 4-(6-(4-(2-cyclopentylacetamido)thiophen-2-yl)pyrazin-2-yl)-2-methoxy-N-methyl-N-(1-methylpiperidin-4-yl)benzamide]
11 to 100 | COc1cc(-c2cncc(-c3cc(NC(=O)CC4CCC4)cs3)n2)ccc1C(=O)N1CCOCC1 [Example B32, 2-cyclobutyl-N-(5-(6-(3-methoxy-4-(morpholine-4-carbonyl)phenyl)pyrazin-2-yl)thiophen-3-yl)acetamide]
11 to 100 | CCCCC(=O)Nc1csc(-c2cncc(-c3cccs3)n2)c1 [Example 219, N-{5-[6-(thiophen-2-yl)pyrazin-2-yl]thiophen-3-yl}pentanamide]
11 to 100 | CCCCC(=O)Nc1csc(-c2cncc(-c3ccc(C(=O)N4CCN(C)CC4)c(OC)c3)n2)c1 [Example B37, N-(5-(6-(3-methoxy-4-(4-methylpiperazine-1-carbonyl)phenyl)pyrazin-2-yl)thiophen-3-yl)pentanamide]
101 to 1000 | Cc1nn(C)c2cc(-c3cncc(-c4cc(NC(=O)CC5CCC5)cs4)n3)ccc12 [Example A51, 2-cyclobutyl-N-(5-(6-(1,3-dimethyl-1H-indazol-6-yl)pyrazin-2-yl)thiophen-3-yl)acetamide]
1000 to 10000 | CCCCC(=O)Nc1csc(-c2cncc(-c3cc(OC)c(OC)cc3C(N)=O)n2)c1 [Example A26, 4,5-dimethoxy-2-(6-(4-pentanamidothiophen-2-yl)pyrazin-2-yl)benzamide]
101 to 1000 | COc1cc(-c2cncc(-c3cc(NC(=O)CC4(c5ccc(C(F)(F)F)cc5)CCC4)cs3)n2)ccc1C(=O)N(C)C1CCN(C)CC1 [Example B85, 2-methoxy-N-methyl-N-(1-methylpiperidin-4-yl)-4-(6-(4-(2-(1-(4-(trifluoromethyl)phenyl)cyclobutyl)acetamido)thiophen-2-yl)pyrazin-2-yl)benzamide]
> 10000 | CCCCC(=O)Nc1csc(-c2cccc(-c3ccc(C(=O)N(C4CC4)C4CCN(C)CC4)c(OC)c3)n2)c1 [Example B75, N-cyclopropyl-2-methoxy-N-(1-methylpiperidin-4-yl)-4-(6-(4-pentanamidothiophen-2-yl)pyridin-2-yl)benzamide]
101 to 1000 | COc1cc(-c2cncc(-c3cc(NC(=O)CC4CCCC4)cs3)n2)ccc1C(=O)Nc1cnn(C)c1OC [Example B44, 4-(6-(4-(2-cyclopentylacetamido)thiophen-2-yl)pyrazin-2-yl)-2-methoxy-N-(5-methoxy-1-methyl-1H-pyrazol-4-yl)benzamide]
11 to 100 | CCCCC(=O)Nc1csc(-c2cncc(-c3ccc(C(=O)N4CCC(OC)CC4)c(OC)c3)n2)c1 [Example B53, N-(5-(6-(3-methoxy-4-(4-methoxypiperidine-1-carbonyl)phenyl)pyrazin-2-yl)thiophen-3-yl)pentanamide]
11 to 100 | COc1cc(-c2cncc(-c3cc(NC(=O)CC4CC4)cs3)n2)ccc1C(=O)Nc1nnnn1C [Example B25, 2-methoxy-4-(6-(4-(2-cyclopropylacetamido)thiophen-2-yl)pyrazin-2-yl)-N-(1-methyl-1H-tetrazol-5-yl)benzamide]
101 to 1000 | CCCCC(=O)Nc1csc(-c2cncc(-c3cc(F)c(C(=O)N(C)C4CCN(C)CC4)c(F)c3)n2)c1 [Example B74, 2,6-difluoro-N-methyl-N-(1-methylpiperidin-4-yl)-4-(6-(4-pentanamidothiophen-2-yl)pyrazin-2-yl)benzamide]
101 to 1000 | COc1cc(-c2cncc(-c3cc(NC(=O)CC45CC(C4)C5)cs3)n2)ccc1C(=O)Nc1nnco1 [Example 204, 4-[6-(4-{[2-(bicyclo [1.1.1]penta-1-yl)acetyl]amino}thiophen-2-yl)pyrazin-2-yl]-2-methoxy-N-(1,3,4-oxadiazol-2-yl) benzamide]
11 to 100 | COc1cc(-c2cncc(-c3cc(NC(=O)CC4CC4)cs3)n2)ccc1S(=O)(=O)N(C)CCN(C)C [Example B102, 2-cyclopropyl-N-(5-(6-(4-(N-(2-(dimethylamino)ethyl)-N-methylsulfamoyl)-3-methoxyphenyl)pyrazin-2-yl)thiophen-3-yl)acetamide]
11 to 100 | COc1cc(-c2cncc(-c3cc(NC(=O)CC45CC(C4)C5)cs3)n2)ccc1C(=O)N1CCOCC1 [Example B45, 2-(bicyclo[1.1.1]pentan-1-yl)-N-(5-(6-(3-methoxy-4-(morpholine-4-carbonyl)phenyl)pyrazin-2-yl)thiophen-3-yl)acetamide]
11 to 100 | CCCCC(=O)Nc1csc(-c2cncc(-c3cccc(OC)c3)n2)c1 [Example 195, N-{5-[6-(3-methoxyphenyl)pyrazin-2-yl]thiophen-3-yl} pentanamide]

Source: US20240308992A1 (Biopolar Youtang(Guangdong) Pharmaceutical Co., Ltd., priority 2021, published 2024)
